In patent US7786114B2, “Bis-azaindole derivatives, preparation and pharmaceutical use thereof as kinase inhibitors” (Aventis Pharma S.A., priority 2004, dated 2010) one finds melting point data, which are given here for nine compounds.

As to `COc1cc2c(nc1OC)c(-c1cc3c(Cl)c(F)cnc3[nH]1)cn2CCCN1CCCCC1` [Example 11, 3-[4-Chloro-5-fluoro-1H-pyrrolo[2,3-b]pyridin-2-yl]-5,6-dimethoxy-1-(3-piperidin-1-ylpropyl)-1H-pyrrolo[3,2-b]pyridine], the melting point was in the range of 110 to 114 °C.

Regarding `COc1cc2c(nc1OC)c(-c1cc3c(Cl)c(F)cnc3[nH]1)cn2CCN1CCOCC1` [Example 8, 3-(4-chloro-5-fluoro-1H-pyrrolo[2,3-b]pyridin-2-yl)-5,6-dimethoxy-1-(2-morpholin-4-yl-ethyl)-1H-pyrrolo[3,2-b]pyridine], the melting point turned out to be 206 °C.

`COc1cc2c(nc1OC)c(-c1cc3c(Cl)c(F)cnc3[nH]1)cn2CCCN1CCC(CN)CC1` [Example 15, C-(1-{3-[3-(4-Chloro-5-fluoro-1H-pyrrolo[2,3-b]pyridin-2-yl)-5,6-dimethoxypyrrolo[3,2-b]pyridin-1-yl]propyl}piperidin-4-yl)methylamine] registered a melting point of 135 °C.

The compound `COc1cc2c(nc1OC)c(-c1cc3c(Cl)c(F)cnc3[nH]1)cn2CCCN1CCN(C)CC1` [Example 16, 3-(4-Chloro-5-fluoro-1H-pyrrolo[2,3-b]pyridin-2-yl)-5,6-dimethoxy-1-[3-(4-methylpiperazin-1-yl)propyl]-1H-pyrrolo[3,2-b]pyridine] registered a melting point of 155 °C.

In turn, `COc1cc2c(nc1OC)c(-c1cc3c(Cl)c(F)cnc3[nH]1)cn2CCCN1CCOCC1` [Example 14, 3-(4-Chloro-5-fluoro-1H-pyrrolo[2,3-b]pyridin-2-yl)-5,6-dimethoxy-1-(3-morpholin-4-ylpropyl)-1H-pyrrolo[3,2-b]pyridine] displayed a melting point of 189 °C.

In the case of `COc1cc2c(nc1OC)c(-c1cc3c(Cl)c(F)cnc3[nH]1)cn2CCCN1CCC(O)CC1` [Example 12, 1-{3-[3-(4-Chloro-5-fluoro-1H-pyrrolo[2,3-b]pyridin-2-yl)-5,6-dimethoxypyrrolo[3,2-b]pyridin-1-yl]propyl}piperidin-4-ol], the melting point stood at 188 °C.

On to `COc1cc2c(nc1OC)c(-c1cc3cc(F)cnc3[nH]1)cn2CCN1CCOCC1` [Example 7, 3-(5-fluoro-1H-pyrrolo[2,3-b]pyridin-2-yl)-5,6-dimethoxy-1-(2-morpholin-4-ylethyl)-1H-pyrrolo[3,2-b]pyridine], for which the melting point is 218 °C.

With `COc1cc2[nH]cc(-c3cc4c(Cl)c(F)cnc4[nH]3)c2nc1OC` [Example 9, 3-[4-Chloro-5-fluoro-1H-pyrrolo[2,3-b]pyridin-2-yl]-5,6-dimethoxy-1H-pyrrolo[3,2-b]pyridine], the melting point lay in the range of 283 to 284 °C.

Compound `COc1cc2c(nc1OC)c(-c1cc3c(Cl)c(F)cnc3[nH]1)cn2CCCN1CCCN(C)CC1` [Example 13, 3-(4-Chloro-5-fluoro-1H-pyrrolo[2,3-b]pyridin-2-yl)-5,6-dimethoxy-1-[3-(4-methylperhydro-1,4-diazepin-1-yl)propyl]-1H-pyrrolo[3,2-b]pyridine] displayed a melting point of 140 to 145 °C.
